According to PubChem BioAssay (NCI):
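1) Cells in 96-well plates. 2) Compound, 48 h, 5 concentrations. 3) Linear interpolation between surrounding doses. 4) Unreached endpoint = highest concentration. GI50 = concentration required for 50% inhibition of growth. TGI denotes the concentration required for complete inhibition of growth.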

What was measured:
Experiment in all cases: DTP human tumour cell line panel, 48 h
MDA-N = test system: MDA-N
DLD-1 colon = test system: DLD-1 colon
DMS 114 small cell lung = test system: DMS 114 small cell lung
M19-MEL melanoma = test system: M19-MEL melanoma
SNB-78 CNS = test system: SNB-78 CNS
XF 498 CNS = test system: XF 498 CNS
RXF-631 renal = test system: RXF-631 renal
HOP-18 NSCLC = test system: HOP-18 NSCLC
LXFL 529 NSCLC = test system: LXFL 529 NSCLC

SMILES	TGI (MDA-N)	TGI (DLD-1 colon)	TGI (DMS 114 small cell lung)	TGI (M19-MEL melanoma)	TGI (SNB-78 CNS)	TGI (XF 498 CNS)	TGI (RXF-631 renal)	TGI (HOP-18 NSCLC)	TGI (LXFL 529 NSCLC)	also measured
CC(=O)OC1CCC2(C)C(=CCC3C2CCC2(C)C(C(C)C(=O)O)CCC32)C1 (stereo not given)	> 100 µM	–	–	–	–	–	–	–	–	–
C=C(CS(=O)(=O)c1ccccc1)[P+](c1ccccc1)(c1ccccc1)c1ccccc1	–	> 100 µM	58.7 µM	50.4 µM	> 100 µM	28.9 µM	–	–	–	–
O=c1[nH]c(SCc2c(Cl)c(Cl)c(Cl)c(Cl)c2Cl)nc(=S)[nH]1	> 100 µM	–	–	–	–	–	–	–	–	–
CC(=O)OC1C(CCl)OC(N=[N+]=[N-])C(OC(C)=O)C1OC(C)=O (stereo not given)	–	> 100 µM	> 100 µM	> 100 µM	–	> 100 µM	> 100 µM	–	–	–
CC1=C(c2cc(C(=O)Nc3ccc(Cl)c(Cl)c3)nc(N)n2)Sc2ccccc2N1	–	> 100 µM	> 100 µM	> 100 µM	> 100 µM	> 100 µM	–	> 100 µM	> 100 µM	–
CC1=C(/C=C/C(C)=C/C=C/C(C)=C/C(=O)Nc2ccc(O)cc2)C(C)(C)CCC1	8.35 µM	–	–	–	–	–	–	–	–	–
C[C@H]1CC[C@@H]2[C@@H](C)[C@H]3[C@H](C[C@H]4[C@@H]5CC=C6C[C@@H](O)CC[C@]6(C)[C@H]5C[C@H](O)[C@]34C)N2C1	> 100 µM	–	–	–	–	–	–	–	–	–
CC(C)(C)[Si](C)(C)O/N=C\c1ccc(O[Si](C)(C)C(C)(C)C)cc1	–	> 100 µM	75.3 µM	> 100 µM	> 100 µM	83 µM	53.5 µM	> 100 µM	> 100 µM	–
CC(=O)OC(C)(C)N=Nc1ccc(Br)cc1	> 100 µM	–	–	–	–	–	–	–	–	–
CCC1CC(=O)N(SCC(N)C(=O)O)C1=O (stereo not given)	> 100 µM	–	–	–	–	–	–	–	–	–
C=C1Oc2nc3ccccc3c(=O)n2C1(C)C	–	> 100 µM	> 100 µM	> 100 µM	> 100 µM	> 100 µM	–	> 100 µM	> 100 µM	–
O=C(O)C1c2ccccc2C(C(=O)O)c2ccccc21 (stereo not given)	–	> 100 µM	> 100 µM	> 100 µM	> 100 µM	–	–	> 100 µM	> 100 µM	–
O=C1/C(=C/c2ccccc2)CCC/C1=C\c1ccccc1	7.71 µM	8.83 µM	24.3 µM	6.98 µM	> 87.9 µM	–	50.5 µM	38.7 µM	15.8 µM	–
COc1cc2cc[n+]3c4cc(OC)c(OC)cc4c(C)cc3c2cc1OC	–	> 100 µM	> 100 µM	> 100 µM	> 100 µM	> 100 µM	> 100 µM	> 100 µM	> 100 µM	–
CC1(C)CC2C=C(C=O)C3(C=O)CC3(C)C2C1 (stereo not given)	9.36 µM	–	–	–	–	–	–	–	–	–
COc1ccc2c(=O)c3cc([N+](=O)[O-])ccc3n(C)c2c1	> 100 µM	–	–	–	–	–	–	–	–	–
COC(=O)c1ccc([N+](=O)[O-])c(O)c1	> 100 µM	–	–	–	–	–	–	–	–	–
Cc1ccccc1N=Nc1c(O)[nH]c2ccccc12	> 100 µM	–	–	–	–	–	–	–	–	–

SMILES	TGI (MDA-N)	TGI (DLD-1 colon)	TGI (DMS 114 small cell lung)	TGI (M19-MEL melanoma)	TGI (SNB-78 CNS)	TGI (XF 498 CNS)	TGI (RXF-631 renal)	TGI (HOP-18 NSCLC)	TGI (LXFL 529 NSCLC)	also measured
COc1cccc(NC(=O)CC(=O)N2NC(C)C(N=Nc3cccc(C(=O)O)c3)C2=O)c1 (stereo not given)	–	> 100 µM	> 100 µM	> 100 µM	> 100 µM	–	> 100 µM	> 100 µM	> 100 µM	–
Cc1cc(C)cc(Sc2c([N+](=O)[O-])ncn2C)c1	–	27.5 µM	34.4 µM	84.1 µM	58.9 µM	59.5 µM	51.3 µM	14.4 µM	40.9 µM	–
COc1cc([C@@H]2c3cc4c(cc3[C@H](O)[C@H]3COC(=O)[C@H]23)OCO4)cc(OC)c1OC	0.5 µM	> 100 µM	–	–	> 100 µM	> 100 µM	–	> 100 µM	> 100 µM	–
Cc1cc(NS(=O)(=O)c2ccc(NC(=O)c3cccc4c(Nc5ccc(S(=O)(=O)Nc6cc(C)on6)cc5)c5ccccc5nc34)cc2)no1	–	> 100 µM	> 100 µM	> 100 µM	> 100 µM	96.1 µM	–	69.3 µM	95.5 µM	–
O=C(O)C1CCCCN1C(=O)c1ccccc1 (stereo not given)	–	> 100 µM	> 100 µM	> 100 µM	> 100 µM	> 100 µM	> 100 µM	> 100 µM	> 100 µM	–
CCC[CH2][Sn]([CH2]CCC)([O]C(=O)c1nccnc1N)[O]C(=O)c1nccnc1N	–	2.12 µM	–	1.49 µM	1.57 µM	2.68 µM	–	3.8 µM	0.327 µM	GI50 (DLD-1 colon): 0.876 µM; GI50 (HOP-18 NSCLC): 2.32 µM; GI50 (LXFL 529 NSCLC): 0.124 µM; GI50 (SNB-78 CNS): 0.388 µM; GI50 (XF 498 CNS): 1.38 µM
NC(=O)C(NC=O)c1ccccc1 (stereo not given)	> 100 µM	–	–	–	–	–	–	–	–	–
O=C(Nc1ccccc1Br)c1cccc([N+](=O)[O-])c1O	–	> 100 µM	18 µM	12.9 µM	> 84.8 µM	–	> 100 µM	> 25.1 µM	22.1 µM	–
CC[O-].Cc1ccc2cccc([O-])c2n1.Cc1ccc2cccc([O-])c2n1.Cc1ccc2cccc([O-])c2n1.[Ti+4]	–	> 81 µM	> 59.3 µM	27.7 µM	> 100 µM	58.3 µM	> 65.4 µM	> 92.6 µM	> 49.3 µM	GI50 (DLD-1 colon): 28.9 µM; GI50 (DMS 114 small cell lung): 21.9 µM; GI50 (HOP-18 NSCLC): 41.1 µM; GI50 (LXFL 529 NSCLC): 24.8 µM; GI50 (M19-MEL melanoma): 14 µM; GI50 (RXF-631 renal): 18.8 µM; GI50 (SNB-78 CNS): 59.7 µM; GI50 (XF 498 CNS): 17.3 µM
N#CC(C#N)=CSc1ccccc1	–	63.3 µM	43 µM	–	–	> 100 µM	> 100 µM	> 100 µM	> 100 µM	–
COc1cc2c3c(n(C)c(=O)c2cc1OC)-c1cc2c(cc1/C3=C\CCCBr)OCO2	> 100 µM	–	–	–	–	–	–	–	–	GI50 (MDA-N): > 100 µM
N#CCC(=O)N/N=C1\C(=O)N(c2ccc(Cl)cc2)C(=O)C(=O)C1c1nc2ccccc2o1 (stereo not given)	–	> 100 µM	> 100 µM	> 100 µM	> 100 µM	–	> 100 µM	> 100 µM	> 100 µM	–
O=C(NNC(=O)c1ccncc1)c1ccncc1	> 100 µM	–	–	–	–	–	–	–	–	–
O=S1(=O)CS(=O)(=O)OCCCO1	> 100 µM	–	–	–	–	–	–	–	–	–
CN1c2ccccc2S(=O)(=O)n2c(COc3ccc(Cl)cc3)nnc21	> 100 µM	–	–	–	–	–	–	–	–	–
CC1(C)C(=S)C(C)(C)C1=S	> 100 µM	–	–	–	–	–	–	–	–	–
CCN(CC)CCNC(=O)c1cccc2cc3ccccc3nc12	–	20.7 µM	19.2 µM	16.6 µM	57 µM	–	32.8 µM	88.5 µM	–	–
